Measured values: the supplement of paper PMC12370961

How the values were obtained:
Test in all cases: differential drug sensitivity score (dDSS) relative to sarcoma reference cohort mean DSS (DSS units (0-100 scale difference)); higher = more selective sensitivity than reference sarcomas
Conditions in all cases: exposure time: 72 h; concentration range: 10-10000 nM
CDS-ZH001-2 = test system: CDS-ZH001-2 (patient-derived CIC-DUX4 sarcoma tumoroid)
Experimental: (§1)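 Drug response profiling of patient-derived Ewing sarcoma and CIC::DUX4 sarcoma tumoroid models (or cells tested directly after isolation from the tumor, 'direct'). The DSS is the normalised AUC (0-100); dDSS is the sample DSS minus the mean DSS of a 34-sarcoma reference cohort profiled in the same lab.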

CDS-ZH002 = test system: CDS-ZH002 (patient-derived CIC-DUX4 sarcoma tumoroid)
Experimental: as §1

ES-ZH009 = test system: ES-ZH009 (patient-derived Ewing sarcoma tumoroid)
Experimental: as §1

ES-ZH001 = test system: ES-ZH001 (patient-derived Ewing sarcoma tumoroid)
Experimental: as §1

ES-ZH004 = test system: ES-ZH004 (patient-derived Ewing sarcoma tumoroid)
Experimental: as §1

CDS-ZH002 direct = test system: CDS-ZH002 direct (CIC-DUX4 sarcoma cells right after isolation)
Experimental: as §1

ES-ZH002 = test system: ES-ZH002 (patient-derived Ewing sarcoma tumoroid)
Experimental: as §1

CDS-ZH003 = test system: CDS-ZH003 (patient-derived CIC-DUX4 sarcoma tumoroid)
Experimental: as §1

ES-ZH016 = test system: ES-ZH016 (patient-derived Ewing sarcoma tumoroid)
Experimental: as §1

CDS-ZH001 = test system: CDS-ZH001 (patient-derived CIC-DUX4 sarcoma tumoroid)
Experimental: as §1

ES-ZH007 = test system: ES-ZH007 (patient-derived Ewing sarcoma tumoroid)
Experimental: as §1

ES-ZH008 = test system: ES-ZH008 (patient-derived Ewing sarcoma tumoroid)
Experimental: as §1

ES-ZH016 direct = test system: ES-ZH016 direct (Ewing sarcoma cells right after isolation)
Experimental: as §1

Compound | differential drug sensitivity score (CDS-ZH001-2) | differential drug sensitivity score (CDS-ZH002) | differential drug sensitivity score (ES-ZH009) | differential drug sensitivity score (ES-ZH001) | differential drug sensitivity score (ES-ZH004) | differential drug sensitivity score (CDS-ZH002 direct) | differential drug sensitivity score (ES-ZH002) | differential drug sensitivity score (CDS-ZH003) | differential drug sensitivity score (ES-ZH016) | differential drug sensitivity score (CDS-ZH001) | differential drug sensitivity score (ES-ZH007) | differential drug sensitivity score (ES-ZH008) | differential drug sensitivity score (ES-ZH016 direct)
NC(=O)Nc1cc(-c2cccc(F)c2)sc1C(=O)N[C@H]1CCCNC1 [AZD7762] | 0 | -0.5 | 8.8 | 7.4 | -2.9 | -1 | 7.1 | -3.8 | 4.7 | 6.3 | 8.8 | 8.1 | 10.6
COc1ccc(-c2ccc3c(N4CCOC[C@@H]4C)nc(N4CCOC[C@@H]4C)nc3n2)cc1CO [AZD8055] | 0.8 | -10.9 | 9.6 | 0.8 | 4.9 | -2.1 | 12.1 | 8.6 | 2 | 1.6 | 4.7 | 7.6 | -8.5
CCN1CCN(Cc2ccc(Nc3ncc(F)c(-c4cc(F)c5nc(C)n(C(C)C)c5c4)n3)nc2)CC1 [Abemaciclib] | -2.7 | -2.7 | 6.4 | 8.8 | 10.4 | 2.2 | 14.7 | -2.7 | 1.5 | -2.4 | 5.7 | 10.7 | -2.7
CN(C)Cc1c(C(=O)NCCOc2ccc(C(=O)NO)cc2)oc2ccccc12 [Abexinostat] | 4.2 | 0.1 | 10.5 | 5.3 | 3.2 | -0.7 | 3.9 | -11.2 | 4.3 | -3.5 | 4.9 | 9.6 | 2.4
CC#CC(=O)N1CCC[C@H]1c1nc(-c2ccc(C(=O)Nc3ccccn3)cc2)c2c(N)nccn12 [Acalabrutinib] | -2.5 | -2.9 | -3.5 | 5.7 | 11.2 | -3.2 | 9.7 | 1.4 | -2.1 | -3.5 | -3.5 | 17.5 | 2.4
C=CCn1c(=O)c2cnc(Nc3ccc(N4CCN(C)CC4)cc3)nc2n1-c1cccc(C(C)(C)O)n1 [Adavosertib] | 5.3 | 3 | 10.9 | 8.1 | 0.2 | -2.6 | 12 | 4.9 | 2.8 | 4.9 | 4 | 7.6 | 8.1
CN(C)C/C=C/C(=O)Nc1cc2c(Nc3ccc(F)c(Cl)c3)ncnc2cc1O[C@H]1CCOC1 [Afatinib] | -3.4 | -4.9 | -3 | -3.9 | -0.3 | -4.7 | -2 | -4.9 | -4.6 | -4.6 | -4.2 | -1.4 | -2.4
Cn1ncc(Cl)c1-c1cc(C(=O)N[C@H](CN)Cc2cccc(F)c2)sc1Cl [Afuresertib] | 0.3 | -4.7 | 3.6 | -4.1 | 4.1 | -5.5 | 5.8 | 1.1 | -0.3 | 2.8 | 2.4 | 4.6 | -3.4
CCc1cc2c(cc1N1CCC(N3CCOCC3)CC1)C(C)(C)c1[nH]c3cc(C#N)ccc3c1C2=O [Alectinib] | -1.3 | -1.3 | -1.3 | -0.5 | -1.3 | -0.8 | 4.6 | 2.4 | -1.3 | -1.2 | -1.3 | -0.7 | -1.3
COc1cc(Nc2ncc3c(n2)-c2ccc(Cl)cc2C(c2c(F)cccc2OC)=NC3)ccc1C(=O)O [Alisertib] | 5.5 | -3.7 | 15.8 | 20 | -11.3 | -7.3 | 21.5 | -0.9 | 15.3 | -3.4 | 8.5 | 8.2 | 17.2
Cc1nc(NC(=O)N2CCC[C@H]2C(N)=O)sc1-c1ccnc(C(C)(C)C(F)(F)F)c1 [Alpelisib] | 4.9 | -3 | 2.5 | -3.7 | 0.8 | -2 | 11 | 0.2 | 1 | 2.9 | -1.9 | 11 | 0.9
CN1CC[C@H](c2c(O)cc(O)c3c(=O)cc(-c4ccccc4Cl)oc23)[C@H](O)C1 [Alvocidib] | 5.7 | 5.8 | 9 | 2.6 | 6.6 | 8.9 | 7.1 | 8 | 6.1 | 8.5 | 7.8 | 6.3 | 3.7
COc1cc(NS(C)(=O)=O)ccc1Nc1c2ccccc2nc2ccccc12 [Amsacrine] | 3 | 1.6 | 8.4 | 12.5 | 8.8 | -4.1 | 27.1 | -12.8 | 13.7 | -1.9 | 8.9 | 16.3 | 13.3
COc1cc(OC)c2c(=O)[nH]c(-c3cc(C)c(OCCO)c(C)c3)nc2c1 [Apabetalone] | -0.7 | -0.7 | 0.5 | -0.7 | 0.6 | -0.7 | 0.6 | 3.6 | -0.7 | -0.6 | -0.7 | 3.2 | -0.7
CNC(=O)c1ccccc1Sc1ccc2c(/C=C/c3ccccn3)n[nH]c2c1 [Axitinib] | -0.8 | -0.9 | 0.4 | -0.9 | -0.9 | -0.9 | 2.2 | 6 | -0.9 | -0.9 | -0.9 | -0.9 | 3.8
Nc1ncn([C@@H]2O[C@H](CO)[C@@H](O)[C@H]2O)c(=O)n1 [Azacitidine] | -0.6 | 0.2 | 0.6 | -1.2 | -1.2 | 0.2 | 4.4 | -1.2 | -1.2 | -0.4 | -1.2 | -1.2 | -1.2
Cc1ccc(C(=O)Nc2cccc(C(F)(F)F)c2)cc1Nc1nc(-c2cccnc2)nc2c1cnn2C [BHG712] | -1.6 | -1.6 | -1.6 | -1.1 | 0.6 | -1.6 | 3.8 | -1.6 | -1.6 | -1.6 | -1.6 | 7.1 | -1.6
CC[C@@H]1C(=O)N(C)c2cnc(Nc3ccc(C(=O)NC4CCN(C)CC4)cc3OC)nc2N1C1CCCC1 [BI-2536] | 1.7 | 2.2 | 19.6 | 21.6 | 2.9 | -8 | 19 | -10 | 17.6 | -0.7 | 6.1 | 2.3 | 13.4
CC(C)CCN1c2nc(Nc3cc(F)c(O)c(F)c3)ncc2N(C)C(=O)C1C (stereo not given) [BI-D1870] | -0.8 | -2.3 | 8.6 | 2.9 | 3 | -1.7 | 3.1 | 4.1 | 2.7 | 1.3 | 0.6 | 5.6 | 7.3
Fc1cc(-c2cccc3ncc(-c4cnn(C5CCNCC5)c4)nc23)cc(F)c1CN1CCOCC1 [BSK805] | 1.9 | -2.6 | 1.7 | -0.1 | 1.4 | 0.1 | 3.2 | 2.6 | 2.5 | 2.5 | 2.8 | 2.9 | 3
O=C(NCCCNc1nc(Nc2cccc(NC(=O)N3CCCC3)c2)ncc1I)c1cccs1 [BX-795] | -2.6 | -1.9 | 1.1 | 3.7 | -3.5 | -2.6 | 2.2 | 5.5 | 2.6 | -4.1 | 0 | -2.2 | 5.1
CCN(CCCOc1ccc2c(Nc3cc(CC(=O)Nc4cccc(F)c4)[nH]n3)ncnc2c1)CCOP(=O)(O)O [Barasertib] | 4.6 | -3 | 27.6 | 32.8 | 10.1 | -3 | 26.1 | -8.9 | 22.6 | -8.9 | 4.7 | 17.5 | 23.8
Cc1sc2c(c1C)C(c1ccc(Cl)cc1)=N[C@@H](CC(=O)Nc1ccc(O)cc1)c1nnc(C)n1-2 [Birabresib] | 1 | -11.1 | 11.9 | -5.6 | -6.7 | 1.5 | 0.3 | -0.8 | -7.9 | -1.1 | -4.1 | 5.9 | 11.1
CC[C@H](NC(=O)[C@H](C)NC)C(=O)N1C[C@@H](O)C[C@H]1Cc1c(-c2[nH]c3cc(F)ccc3c2C[C@@H]2C[C@H](O)CN2C(=O)[C@H](CC)NC(=O)[C@H](C)NC)[nH]c2cc(F)ccc12 [Birinapant] | 16.6 | -1.8 | 5.7 | -0.8 | -2.3 | 4.6 | -0.4 | 13 | -1.3 | 21.9 | -0.4 | -0.3 | 4.6
CC(C)C[C@H](NC(=O)[C@H](Cc1ccccc1)NC(=O)c1cnccn1)B(O)O [Bortezomib] | 6 | 3.6 | 7 | 3.9 | 5.5 | 6.9 | 4.7 | 6 | -5.9 | 6.9 | 6.4 | -0.2 | -2.6
COc1cc(Nc2c(C#N)cnc3cc(OCCCN4CCN(C)CC4)c(OC)cc23)c(Cl)cc1Cl [Bosutinib] | 1.8 | 0.1 | 0.5 | -0.5 | -0.5 | -0.5 | -0.5 | -0.4 | 1.1 | 0.6 | -0.5 | -0.5 | 0.2
COc1cc(N2CCC(N3CCN(C)CC3)CC2)ccc1Nc1ncc(Cl)c(Nc2ccccc2P(C)(C)=O)n1 [Brigatinib] | 7.6 | -4.2 | 2.5 | -0.4 | -3 | -0.2 | 9 | 2 | 1.9 | 3.4 | 1.9 | 4.1 | 0.4
Nc1cc(C(F)(F)F)c(-c2cc(N3CCOCC3)nc(N3CCOCC3)n2)cn1 [Buparlisib] | 2.9 | -2.2 | 2.5 | 1.5 | -2.2 | -2.5 | 7.6 | 6.9 | -0.6 | 3.3 | -0.1 | 4.6 | 0.6
CS(=O)(=O)OCCCCOS(C)(=O)=O [Busulfan] | -0.8 | -1.2 | -1.2 | 3.9 | 2.9 | -1.2 | 5.9 | -1.2 | -1.1 | -1.2 | -1.2 | -0.1 | 6.4
CCS(=O)(=O)N1CCC([C@@H](C)n2c(C)c(C(=O)NCc3c(OC)cc(C)[nH]c3=O)c3ccccc32)CC1 [CPI169] | -0.4 | -0.4 | -0.3 | -0.4 | -0.4 | -0.4 | -0.4 | -0.3 | -0.4 | -0.4 | -0.4 | -0.4 | 3.3
